Assay results taken from the supplement of paper PMC10307832.

Tests used:
Assay in all cases: relative viability (nuclei count vs DMSO), 5 days (fraction); higher = more cells survive
CX-5461 + Vorinostat = compound: Cc1cnc(CNC(=O)c2c(=O)c3ccc(N4CCCN(C)CC4)nc3n3c2sc2ccccc23)cn1 [CX-5461] + O=C(CCCCCCC(=O)Nc1ccccc1)NO [Vorinostat] (partner 1 µM)
How it was run: (§1)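 Lung cancer cell lines in 1536-well plates were dosed by pin tool the day after seeding, either with one drug alone or with a fixed anchor-drug dose plus five library-drug doses (not always all listed) in √10 steps. After 5 days, cells were fixed and their nuclei stained in one step (final 0.05% Triton X-100, 1% formaldehyde, 1 ug/ml Hoechst), then counted on 4× images. Relative viability is the nuclei count in treated wells divided by that in vehicle wells. Values are medians of duplicate plates.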

IMD-0354 + Decitabine = compound: O=C(Nc1cc(C(F)(F)F)cc(C(F)(F)F)c1)c1cc(Cl)ccc1O [IMD-0354] + Nc1ncn([C@H]2C[C@H](O)[C@@H](CO)O2)c(=O)n1 [Decitabine] (partner 2 µM)
How it was run: as §1

IMD-0354 + Vorinostat = compound: O=C(Nc1cc(C(F)(F)F)cc(C(F)(F)F)c1)c1cc(Cl)ccc1O [IMD-0354] + O=C(CCCCCCC(=O)Nc1ccccc1)NO [Vorinostat] (partner 1 µM)
How it was run: as §1

IMD-0354 + Dasatinib = compound: O=C(Nc1cc(C(F)(F)F)cc(C(F)(F)F)c1)c1cc(Cl)ccc1O [IMD-0354] + Cc1nc(Nc2ncc(C(=O)Nc3c(C)cccc3Cl)s2)cc(N2CCN(CCO)CC2)n1 [Dasatinib] (partner 0.075 µM)
How it was run: as §1

Cell Line | relative viability (CX-5461 + Vorinostat; first compound 0.01 µM) | relative viability (CX-5461 + Vorinostat; first compound 0.03162 µM) | relative viability (CX-5461 + Vorinostat; first compound 0.1 µM) | relative viability (CX-5461 + Vorinostat; first compound 0.3162 µM) | relative viability (CX-5461 + Vorinostat; first compound 1 µM) | relative viability (IMD-0354 + Decitabine; first compound 0.04 µM) | relative viability (IMD-0354 + Decitabine; first compound 0.1265 µM) | relative viability (IMD-0354 + Decitabine; first compound 0.4 µM) | relative viability (IMD-0354 + Decitabine; first compound 1.265 µM) | relative viability (IMD-0354 + Decitabine; first compound 4 µM) | relative viability (IMD-0354 + Vorinostat; first compound 0.04 µM) | relative viability (IMD-0354 + Vorinostat; first compound 0.1265 µM) | relative viability (IMD-0354 + Vorinostat; first compound 0.4 µM) | relative viability (IMD-0354 + Vorinostat; first compound 1.265 µM) | relative viability (IMD-0354 + Vorinostat; first compound 4 µM) | relative viability (IMD-0354 + Dasatinib; first compound 0.04 µM) | relative viability (IMD-0354 + Dasatinib; first compound 0.1265 µM) | relative viability (IMD-0354 + Dasatinib; first compound 0.4 µM) | relative viability (IMD-0354 + Dasatinib; first compound 1.265 µM) | relative viability (IMD-0354 + Dasatinib; first compound 4 µM)
NCI-H596 | 0.608 | 0.686 | 0.664 | 0.706 | 0.306 | 1.02 | 0.998 | 0.825 | 0.849 | 0.616 | 0.631 | 0.694 | 0.413 | 0.671 | 0.461 | 0.728 | 0.608 | 0.435 | 0.63 | 0.261
NCI-H23 | 0.755 | 0.577 | 0.492 | 0.458 | 0.3 | 0.271 | 0.313 | 0.295 | 0.192 | 0.24 | 0.664 | 0.745 | 0.289 | 0.172 | 0.192 | 0.836 | 0.82 | 0.384 | 0.275 | 0.227
LCLC-97TM1 | 0.917 | 0.965 | 0.769 | 0.102 | 0.661 | 0.232 | 0.257 | 0.199 | 0.162 | 0.115 | 0.879 | 0.782 | 0.273 | 0.0926 | 0.123 | 0.881 | 0.77 | 0.386 | 0.238 | 0.145
EPLC-272H | 0.47 | 0.362 | 0.362 | 0.48 | 0.458 | 0.372 | 0.341 | 0.362 | 0.337 | 0.288 | 0.285 | 0.463 | 0.754 | 0.172 | 0.338 | 0.511 | 0.279 | 0.353 | 0.121 | 0.0731
NCI-H522 | 1 | 1.1 | 0.955 |  | 0.852 | 0.748 | 0.659 | 0.615 | 0.57 | 0.428 | 1.02 | 0.865 | 0.637 | 0.757 | 0.449 | 0.845 | 0.904 | 0.556 | 0.573 | 0.404
NCI-H1915 | 0.554 | 0.567 | 0.503 | 0.427 | 0.482 | 0.299 | 0.267 | 0.224 | 0.25 | 0.169 | 0.496 | 0.509 | 0.339 | 0.334 | 0.115 | 0.31 | 0.322 | 0.129 | 0.109 | 0.14
NCI-H2405 | 1.04 | 0.872 | 0.994 | 0.939 | 0.669 | 0.883 | 0.801 | 0.636 | 0.294 | 0.347 | 1.24 | 0.984 | 0.706 | 0.306 | 0.335 | 0.213 | 0.242 | 0.217 | 0.249 | 0.116
NCI-H322M | 0.894 | 0.802 | 0.9 | 0.569 | 0.743 | 0.747 | 0.583 | 0.617 | 0.403 | 0.404 | 0.901 | 0.891 | 0.48 | 0.42 | 0.537 | 0.25 | 0.277 | 0.248 | 0.222 | 0.274
NCI-H358 | 0.745 | 0.78 | 0.701 | 0.27 | 0.402 | 0.239 | 0.204 | 0.172 | 0.106 | 0.108 | 0.768 | 0.753 | 0.323 | 0.135 | 0.175 | 0.148 | 0.193 | 0.139 | 0.103 | 0.0831
SW 900 | 0.446 | 0.586 |  | 0.637 | 0.359 | 0.432 | 0.414 | 0.397 | 0.208 | 0.213 | 0.496 | 0.554 | 0.243 | 0.227 | 0.265 | 0.51 | 0.492 | 0.462 | 0.0924 | 0.18
NCI-H1793 | 0.894 | 0.927 | 0.786 | 0.367 | 0.645 | 0.583 | 0.438 | 0.335 | 0.098 | 0.262 | 0.698 | 0.949 | 0.461 | 0.262 | 0.287 | 0.399 | 0.413 | 0.241 | 0.16 | 0.154
SK-MES-1 | 1.22 | 1.22 | 1.13 | 1.19 | 0.654 | 0.387 | 0.386 | 0.306 | 0.176 | 0.205 | 1.4 | 1.09 | 0.693 | 0.305 | 0.192 | 0.437 | 0.307 | 0.396 | 0.126 | 0.184
NCI-H838 | 0.669 | 0.789 | 0.76 | 0.548 | 0.617 | 0.482 | 0.443 | 0.345 | 0.243 | 0.272 | 0.719 | 0.766 | 0.363 | 0.413 | 0.324 | 0.239 | 0.321 | 0.256 | 0.239 | 0.214
